9 molecules from US20250108119A1, “NOVEL STEROID PAYLOADS, STEROID LINKERS, ADCs CONTAINING AND USE THEREOF” (IMMUNEXT, INC., priority 2021, published 2025) can be followed below.

Structures are written as SMILES.

This experiment concerns LPS stimulated human PBMCs. Description: LPS stimulated human PBMC, IL-1β and IL-6 ELISA. The experiment is classed as cell-based. Conditions: for inhibition of IL-1β production / inhibition of IL-1β and IL-6 production: 24 hr; for inhibition of IL-1β and IL-6 production: Experiment 1: free payload 1000-1 nM, 1 ng/ml LPS. As to the method:
The potency of novel steroids was assessed in a model of LPS stimulated human peripheral blood mononuclear cells (PBMCS). Stimulated PBMCs in this assay produce multiple pro-inflammatory cytokines1.
In all the following experiments, human PBMC, isolated from 1-2 healthy donors per study, were stimulated with LPS to induce cytokine production.
LPS was added either immediately after addition of free payload, or in the case of conjugates, four hours after addition of the conjugate.
Cells were plated in flat bottom 96 well plates at a final concentration of 150,000 cells/well, with technical duplicates for each condition.
Test agents were serially diluted in the assay media and added to a final concentration of 1,000 nM-1 nM or 0.2 nM depending on the assay or as a no treatment control.
LPS stimulation was added to a final concentration of 1 ng/ml.
Human IL-1β and IL-6 ELISA kits were used on supernatants according to vendor protocols. All graphs were prepared with GraphPad (Prism).
On the technique in general: ELISA stands for enzyme-linked immunosorbent assay.

Where [1] appears, read: Experiment 6: free payload 1000-0.16 nM.

On to `C[C@]12C=CC(=O)C=C1CC[C@@H]1[C@@H]2[C@@H](O)C[C@@]2(C)[C@H]1C[C@H]1O[C@@H](c3ccc(CC4CC5(C4)CC(NC(=O)[C@H](CCC(=O)O)NC(=O)CNC(=O)CBr)C5)cc3)O[C@]12C(=O)COP(=O)(O)O` (stereo partly drawn) [INX A7, (S)-4-(2-(2-bromoacetamido)acetamido)-5-((6-(4-((6aR,6bS,7S,8aS,8bS,10R,11aR,12aS,12bS)-7-hydroxy-6a,8a-dimethyl-4-oxo-8b-(2-(phosphonooxy)acetyl)-2,4,6a,6b,7,8,8a,8b,11a,12,12a,12b-dodecahydro-1H-naphtho[2′,1′:4,5]indeno[1,2-d][1,3]dioxol-10-yl)benzyl)spiro[3.3]heptan-2-yl)amino)-5-oxopentanoic acid], for which the “potency of conjugated linker payloads over INX J (conclusions)” value (shortened to “potency … over INX J (conclusions)”) is “enhanced potency”.

In the case of `C[C@]12C=CC(=O)C=C1CC[C@@H]1[C@@H]2[C@@H](O)C[C@@]2(C)[C@H]1C[C@H]1O[C@@H](c3ccc(CC4CC45CCC(NC(=O)[C@H](CCC(=O)O)NC(=O)CNC(=O)CBr)CC5)cc3)O[C@]12C(=O)CO` (stereo partly drawn) [INX A9, (4S)-4-(2-(2-bromoacetamido)acetamido)-5-((1-(4-((6aR,6bS,7S,8aS,8bS,10R,11aR,12aS,12bS)-7-hydroxy-8b-(2-hydroxyacetyl)-6a,8a-dimethyl-4-oxo-2,4,6a,6b,7,8,8a,8b,11a,12,12a,12b-dodecahydro-1H-naphtho[2′,1′:4,5]indeno[1,2-d][1,3]dioxol-10-yl)benzyl)spiro[2.5]octan-6-yl)amino)-5-oxopentanoic acid], the “potency … over INX J (conclusions)” value is “enhanced potency”.

In the case of `C[C@]12C=CC(=O)C=C1[C@@H](F)C[C@H]1[C@@H]3C[C@H]4O[C@@H](c5ccc(CC6CC7(C6)CC(NC(=O)[C@H](CCC(=O)O)NC(=O)CNC(=O)CBr)C7)cc5)O[C@@]4(C(=O)COP(=O)(O)O)[C@@]3(C)C[C@H](O)[C@@]12F` (stereo partly drawn) [INX A12, (S)-4-(2-(2-bromoacetamido)acetamido)-5-((6-(4-((2S,6aS,6bR,7S,8aS,8bS,10R,11aR,12aS,12bS)-2,6b-difluoro-7-hydroxy-6a,8a-dimethyl-4-oxo-8b-(2-(phosphonooxy)acetyl)-2,4,6a,6b,7,8,8a,8b,11a,12,12a,12b-dodecahydro-1H-naphtho[2′,1′:4,5]indeno[1,2-d][1,3]dioxol-10-yl)benzyl)spiro[3.3]heptan-2-yl)amino)-5-oxopentanoic acid], the “potency … over INX J (conclusions)” value is listed as “enhanced potency”.

For the molecule `C[C@]12C=CC(=O)C=C1CC[C@H]1[C@@H]3C[C@H]4O[C@@H](c5ccc(CC67CC(N)(C6)C7)cc5)O[C@@]4(C(=O)CO)[C@@]3(C)C[C@H](O)[C@@]12F` [INX-SM-13, (6aS,6bR,7S,8aS,8bS,10R,11aR,12aS,12bS)-10-(4-((3-aminobicyclo[1.1.1]pentan-1-yl)methyl)phenyl)-6b-fluoro-7-hydroxy-8b-(2-hydroxyacetyl)-6a,8a-dimethyl-1,2,6a,6b,7,8,8a,8b,11a,12,12a,12b-dodecahydro-4H-naphtho[2′,1′:4,5]indeno[1,2-d][1,3]dioxol-4-one], under setting [1], the “inhibition of IL-1β production” value is given as “did not lead to increased potency over the non-fluorinated payload”.

Regarding `C[C@]12C=CC(=O)C=C1[C@@H](F)C[C@H]1[C@@H]3C[C@H]4O[C@@H](c5ccc(CC67CC(N)(C6)C7)cc5)O[C@@]4(C(=O)CO)[C@@]3(C)C[C@H](O)[C@@]12F` [INX-SM-24, (2S,6aS,6bR,7S,8aS,8bS,10R,11aR,12aS,12bS)-10-(4-((3-aminobicyclo[1.1.1]pentan-1-yl)methyl)phenyl)-2,6b-difluoro-7-hydroxy-8b-(2-hydroxyacetyl)-6a,8a-dimethyl-1,2,6a,6b,7,8,8a,8b,11a,12,12a,12b-dodecahydro-4H-naphtho[2′,1′:4,5]indeno[1,2-d][1,3]dioxol-4-one], under setting [1], the “inhibition of IL-1β production” value was “increased potency over the non-fluorinated INX-SM-3”.

`C[C@]12C=CC(=O)C=C1CC[C@@H]1[C@@H]2[C@@H](O)C[C@@]2(C)[C@H]1C[C@H]1O[C@H](c3ccc(CC45CC(N)(C4)C5)cc3)O[C@]12C(=O)CO` [INX-SM-53, (6aR,6bS,7S,8aS,8bS,10S,11aR,12aS,12bS)-10-(4-((3-aminobicyclo[1.1.1]pentan-1-yl)methyl)phenyl)-7-hydroxy-8b-(2-hydroxyacetyl)-6a,8a-dimethyl-1,2,6a,6b,7,8,8a,8b, 11a,12,12a,12b-dodecahydro-4H-naphtho[2′,1′:4,5]indeno[1,2-d][1,3]dioxol-4-one]: the “inhibition of IL-1β and IL-6 production” value (n=1 donor) is given as “did not show inhibition”.

As to `C[C@]12C=CC(=O)C=C1CC[C@@H]1[C@@H]2[C@@H](O)C[C@@]2(C)[C@H]1C[C@H]1O[C@H](C34CC(Cc5cccc(N)c5)(C3)C4)O[C@]12C(=O)CO` [INX-SM-54, (6aR,6bS,7S,8aS,8bS,10S,11aR,12aS,12bS)-10-(3-(3-aminobenzyl)bicyclo[1.1.1]pentan-1-yl)-7-hydroxy-8b-(2-hydroxyacetyl)-6a,8a-dimethyl-1,2,6a,6b,7,8,8a,8b,11a,12,12a,12b-dodecahydro-4H-naphtho[2′,1′:4,5]indeno[1,2-d][1,3]dioxol-4-one], the “inhibition of IL-1β and IL-6 production” value (n=1 donor) is “did not show inhibition”.

Turning to `C[C@]12C=CC(=O)C=C1CC[C@@H]1[C@@H]2[C@@H](O)C[C@@]2(C)[C@H]1C[C@H]1O[C@H](c3cnc(Cc4cccc(N)c4)s3)O[C@]12C(=O)CO` [INX-SM-56, (6aR,6bS,7S,8aS,8bS,10S,11aR,12aS,12bS)-10-(2-(3-aminobenzyl)thiazol-5-yl)-7-hydroxy-8b-(2-hydroxyacetyl)-6a,8a-dimethyl-1,2,6a,6b,7,8,8a,8b, 11a,12,12a,12b-dodecahydro-4H-naphtho[2′,1′:4,5]indeno[1,2-d][1,3]dioxol-4-one], the “inhibition of IL-1β production” value (Experiment 2: free payload 1000-1 nM, n=1 donor) was “did not show inhibition”.

For the molecule `C[C@]12C=CC(=O)C=C1[C@@H](F)C[C@H]1[C@@H]3C[C@H]4O[C@H](c5ccc(CC67CC(N)(C6)C7)cc5)O[C@@]4(C(=O)CO)[C@@]3(C)C[C@H](O)[C@@]12F` [INX-SM-74, (2S,6aS,6bR,7S,8aS,8bS,10S,11aR,12aS,12bS)-10-(4-((3-aminobicyclo[1.1.1]pentan-1-yl)methyl)phenyl)-2,6b-difluoro-7-hydroxy-8b-(2-hydroxyacetyl)-6a,8a-dimethyl-1,2,6a,6b,7,8,8a,8b,11a,12,12a,12b-dodecahydro-4H-naphtho[2′,1′:4,5]indeno[1,2-d][1,3]dioxol-4-one], the “potency of free payloads (conclusions)” value is reported as “moderate potency albeit much weaker than the R stereoisomer with the same halogenation”.
